Measurements reported in patent US11512053B2, “Arginine methyltransferase inhibitors and uses thereof” (priority 2013, dated 2022).
Like-named read-outs stand apart in the source and are kept apart here.

Molecular target: T1, human CARM1 (PRMT4) (Flag- and His-tagged) (Homo sapiens, UniProt Q86X55)
T1 construct: Flag-CARM1-His; made in house; host or cells: HEK 293F cells (BacMam baculovirus)
T1 sequence (Q86X55 1-585 isoform Q86X55-1): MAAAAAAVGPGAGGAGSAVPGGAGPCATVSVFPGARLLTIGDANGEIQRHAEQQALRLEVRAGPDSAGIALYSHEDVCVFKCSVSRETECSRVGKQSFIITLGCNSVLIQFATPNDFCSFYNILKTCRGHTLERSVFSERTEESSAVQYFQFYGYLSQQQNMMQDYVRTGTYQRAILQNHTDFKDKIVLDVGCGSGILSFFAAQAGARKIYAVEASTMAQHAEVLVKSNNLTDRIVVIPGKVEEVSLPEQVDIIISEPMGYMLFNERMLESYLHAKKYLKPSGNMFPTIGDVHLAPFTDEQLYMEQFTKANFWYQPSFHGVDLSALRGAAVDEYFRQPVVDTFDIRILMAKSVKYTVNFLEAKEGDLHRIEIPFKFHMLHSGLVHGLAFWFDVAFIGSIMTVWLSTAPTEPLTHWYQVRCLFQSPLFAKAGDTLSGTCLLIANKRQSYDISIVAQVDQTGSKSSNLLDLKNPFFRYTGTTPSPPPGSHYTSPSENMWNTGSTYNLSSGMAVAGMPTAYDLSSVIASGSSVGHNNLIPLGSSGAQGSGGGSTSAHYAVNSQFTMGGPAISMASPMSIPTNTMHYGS
Assay: CARM1 Biochemical Assay (3H-SAM Flashplate, peptide substrate)
Text: General Materials. S-adenosylmethionine (SAM), S-adenosylhomocysteine (SAH), bicine, Tween20, dimethylsulfoxide (DMSO), bovine skin gelatin (BSG), sodium butyrate and Tris(2-carboxyethyl)phosphine hydrochloride solution (TCEP) were purchased from Sigma-Aldrich at the highest level of purity possible. ^3H-SAM was purchase from American Radiolabeled Chemicals with a specific activity of 80 Ci/mmol. 384-well streptavidin Flashplates were purchased from PerkinElmer.
Substrates. Peptide representative of human histone H3 residues 16-30 was synthesized with an N-terminal linker-affinity tag motif and a C-terminal amide cap by 21st Century Biochemicals. The peptide was purified by high-performance liquid chromatography (HPLC) to greater than 95% purity and confirmed by liquid chromatography mass spectrometry (LC-MS). The sequence was Biot-Ahx-[…]-amide and contained a monomethylated arginine at position 26 (SEQ ID NO.:14).
Molecular Biology: Human CARM1 (PRMT4) (NM_199141.1) transcript clone was amplified from an HEK 293 cDNA library, incorporating a flanking 5′ sequence encoding a FLAG tag ([…]) (SEQ ID NO.:6) fused directly to Ala 2 of CARM1 and 3′ sequence encoding a hexa His sequence ([…]) (SEQ ID NO.:15) fused directly to Ser 608. The gene sequence encoding isoform1 containing a deletion of amino acids 539-561 was amplified subsequently and subcloned into pFastBacMam (Viva Biotech).
Protein Expression. Recombinant baculovirus were generated according to Bac-to-Bac kit instructions (Life Technologies). […] Infections were carried out at 37° C. for 48 hours, harvested by centrifugation, and stored at −80° C. for purification.
Protein Purification. […] Column was washed with 500 mM NaCl in buffer A and Flag-CARM1-His was eluted with 200 ug/ml FLAG peptide in buffer A. Pooled fractions were dialyzed in 20 mM Tris, 150 mM NaCl, 5% glycerol and 1 mM DTT, pH 7.8. The purity of recovered protein was 94.
General Procedure for CARM1 Enzyme Assays on Peptide Substrates. The assays were all performed in a buffer consisting of 20 mM Bicine (pH=7.6), 1 mM TCEP, 0.005% BSG, and 0.002% Tween 20, prepared on the day of use. Compounds in 100% DMSO (1 ul) were spotted into a polypropylene 384-well V-bottom plates (Greiner) using a Platemate Plus outfitted with a 384-channel head (Thermo Scientific). DMSO (1 ul) was added to Columns 11, 12, 23, 24, rows A-H for the maximum signal control and 1 ul of SAH, a known product and inhibitor of CARM1, was added to columns 11, 12, 23, 24, rows I-P for the minimum signal control. A cocktail (40 ul) containing the CARM1 enzyme was added by Multidrop Combi (Thermo-Fisher). The compounds were allowed to incubate with CARM1 for 30 min at room temperature, then a cocktail (10 ul) containing ^3H-SAM and peptide was added to initiate the reaction (final volume=51 ul). The final concentrations of the components were as follows: CARM1 was 0.25 nM, ^3H-SAM was 30 nM, peptide was 250 nM, SAH in the minimum signal control wells was 1 mM, and the DMSO concentration was 2%. The assays were stopped by the addition of non-radiolabeled SAM (10 ul) to a final concentration of 300 uM, which dilutes the ^3H-SAM to a level where its incorporation into the peptide substrate is no longer detectable. 50 ul of the reaction in the 384-well polypropylene plate was then transferred to a 384-well Flashplate and the biotinylated peptides were allowed to bind to the streptavidin surface for at least 1 hour before being washed once with 0.1% Tween20 in a Biotek ELx405 plate washer. The plates were then read in a PerkinElmer TopCount plate reader to measure the quantity of ^3H-labeled peptide bound to the Flashplate surface, measured as disintegrations per minute (dpm) or alternatively, referred to as counts per minute (cpm).
Where dpm=disintegrations per minute, cmpd=signal in assay well, and min and max are the respective minimum and maximum signal controls. […]

IC50: 1.01 to 3 µM
IC50 (single experiment or average of multiple experiments): 3 µM
SMILES: CN(CCN)Cc1c[nH]nc1CCc1ccccc1 [Compound 9]
